In patent EP0795330A1, “Medicament for the treatment of insomnia” (ELI LILLY AND COMPANY, priority 1996, dated 1997):

Legend:
5-HT1C receptor = biological target: T1, 5-HT1C receptor (Homo sapiens, UniProt P28335); assay: pharmacological studies, 5-HT1C receptor activity
T1 sequence (P28335 33-458): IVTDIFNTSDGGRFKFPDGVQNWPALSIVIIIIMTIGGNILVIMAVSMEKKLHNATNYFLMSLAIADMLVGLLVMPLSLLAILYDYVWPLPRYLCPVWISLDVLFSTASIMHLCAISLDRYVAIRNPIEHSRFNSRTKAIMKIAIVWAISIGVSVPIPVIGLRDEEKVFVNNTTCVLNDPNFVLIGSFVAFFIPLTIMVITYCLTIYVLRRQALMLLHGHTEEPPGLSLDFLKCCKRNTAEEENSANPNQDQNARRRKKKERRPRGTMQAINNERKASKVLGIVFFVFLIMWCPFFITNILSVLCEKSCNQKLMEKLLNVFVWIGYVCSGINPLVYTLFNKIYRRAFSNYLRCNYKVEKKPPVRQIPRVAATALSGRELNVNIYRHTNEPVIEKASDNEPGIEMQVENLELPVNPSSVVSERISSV

[1] = detection of radiolabelled olanzapine in saliva; assay type: in vivo, patients
Procedure: For example, in the treatment of adult humans, dosages of from 5 to 25 mg per day may be used. A once a day dosage is normally sufficient. For treatment of insomnia, a dose range of from 5 to 100 mg, is suitable, while a dosage of from 5 to 25 mg per day is preferred.

Cc1cc2c(s1)Nc1ccccc1N=C2N1CCN(C)CC1 [olanzapine, 2-methyl-4-(4-methyl-l-piperazinyl)-10H-thieno[2,3-b][1,5] benzodiazepine]
activity at the 5-HT1C receptor (5-HT1C receptor): active
detection in the saliva [1]: can be detected in the saliva
